Data published in US20250073340A1, “SPIROCYCLIC MDM2 MODULATOR AND USES THEREOF” (Newave Pharmaceutical Inc., priority 2021, published 2025).

How the values were obtained:
[1] = system: BCL-2-dependent acute lymphoblastic leukemia (ALL) cell line RS4;11 overexpressing Bcl-2 G101V; assay: cells; type: cell-based; conditions: Homo sapiens, RS4-11; about 72 hours, ATPlite luminescence; read-out: RS4;11-G101V IC50
Procedure: Biological Example 2: In vitro Anti-proliferation Assay in BCL-2-dependent acute lymphoblastic leukemia (ALL) cell line RS4; 11 overexpressing Bcl-2 G101V
Cell antiproliferation was assayed by PerkinElmer ATPlite™ Luminescence Assay System. Briefly, the various test cancer cell lines were plated at a density of about 1×10^4 cells per well in Costar 96-well plates, and were incubated with different concentrations of compounds for about 72 hours in medium supplemented with 5% FBS or 10% normal human serum (NHS). One lyophilized substrate solution vial was then reconstituted by adding 5 mL of substrate buffer solution, and was agitated gently until the solution was homogeneous. About 50 μL of mammalian cell lysis solution was added to 100 μL of cell suspension per well of a microplate, and the plate was shaken for about five minutes in an orbital shaker at −700 rpm. This procedure was used to lyse the cells and to stabilize the ATP. Next, 50 μL substrate solution was added to the wells and microplate was shaken for five minutes in an orbital shaker at −700 rpm. Finally, the luminescence was measured by a PerkinElmer TopCount® Microplate Scintillation Counter. Such assays, carried out with a range of doses of test compounds, allowed the determination of the cellular anti-antiproliferative IC50 of the compounds of the present invention.

MDM2 = MDM2 (Homo sapiens (Human), UniProt Q00987); assay: In vitro MDM2 HTRF assay (inhibition of p53-MDM2 interaction); type: binding; conditions: GST-MDM2 / biotinylated p53 peptide
Sequence of MDM2 (Q00987 whole entry): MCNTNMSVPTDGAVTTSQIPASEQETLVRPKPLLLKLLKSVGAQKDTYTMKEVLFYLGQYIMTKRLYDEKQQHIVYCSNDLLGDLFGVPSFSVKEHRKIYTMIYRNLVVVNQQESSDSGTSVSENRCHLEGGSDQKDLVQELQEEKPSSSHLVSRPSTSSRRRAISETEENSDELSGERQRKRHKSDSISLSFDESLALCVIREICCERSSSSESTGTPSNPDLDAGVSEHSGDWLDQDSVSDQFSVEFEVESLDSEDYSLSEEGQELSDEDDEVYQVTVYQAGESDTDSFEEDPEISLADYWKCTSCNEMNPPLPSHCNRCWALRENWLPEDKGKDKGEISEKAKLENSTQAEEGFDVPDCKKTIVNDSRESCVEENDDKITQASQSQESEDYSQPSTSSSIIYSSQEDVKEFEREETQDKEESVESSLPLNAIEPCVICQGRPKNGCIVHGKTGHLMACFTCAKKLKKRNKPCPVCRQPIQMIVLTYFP

IC50 [1] | IC50 (MDM2) | Compound
11 nM | 0.58 nM | COc1cc(C(N)=O)ccc1NC(=O)[C@@H]1N[C@@H](CC(C)(C)C)[C@@]2(CNc3cc(Cl)ncc32)[C@H]1c1cccc(Cl)c1F [Example 9, (2S,3S,4S,5R)—N-(4-carbamoyl-2-methoxyphenyl)-6′-chloro-4-(3-chloro-2-fluorophenyl)-2-(2,2-dimethylpropyl)-1′,2′-dihydrospiro[pyrrolidine-3,3′-pyrrolo[3,2-c]pyridine]-5-carboxamide]
 | 276 nM | COc1cc(C(N)=O)ccc1NC(=O)[C@H]1N[C@H](CC(C)(C)C)[C@]2(CNc3cc(Cl)ncc32)[C@@H]1c1cccc(Cl)c1F [Example 10, (2R,3R,4R,5S)—N-(4-carbamoyl-2-methoxyphenyl)-6′-chloro-4-(3-chloro-2-fluorophenyl)-2-(2,2-dimethylpropyl)-1′,2′-dihydrospiro[pyrrolidine-3,3′-pyrrolo[3,2-c]pyridine]-5-carboxamide]
44.7 nM | 0.18 nM | COc1cc(C(N)=O)ccc1NC(=O)[C@@H]1N[C@@H](CC(C)(C)C)[C@@]2(CNc3cc(C(F)(F)F)ncc32)[C@H]1c1cccc(Cl)c1F [Example 11, (2S,3S,4S,5R)—N-(4-carbamoyl-2-methoxyphenyl)-4-(3-chloro-2-fluorophenyl)-2-(2,2-dimethylpropyl)-6′-(trifluoromethyl)-1′,2′-dihydrospiro[pyrrolidine-3,3′-pyrrolo[3,2-c]pyridine]-5-carboxamide]
 | 103 nM | COc1cc(C(N)=O)ccc1NC(=O)[C@H]1N[C@H](CC(C)(C)C)[C@]2(CNc3cc(C(F)(F)F)ncc32)[C@@H]1c1cccc(Cl)c1F [Example 12, (2R,3R,4R,5S)—N-(4-carbamoyl-2-methoxyphenyl)-4-(3-chloro-2-fluorophenyl)-2-(2,2-dimethylpropyl)-6′-(trifluoromethyl)-1′,2′-dihydrospiro[pyrrolidine-3,3′-pyrrolo[3,2-c]pyridine]-5-carboxamide]
> 1000 nM | 114 nM | CC(C)(C)C[C@@H]1N[C@@H](C(=O)N2CCOc3cc(C(N)=O)ccc32)[C@H](c2cccc(Cl)c2F)[C@]12CNc1cc(Cl)ccc12 [Example 14, 4-((2′S,3S,4′S,5′R)-6-chloro-4′-(3-chloro-2-fluorophenyl)-2′-neopentylspiro[indoline-3,3′-pyrrolidine]-5′-carbonyl)-3,4-dihydro-2H-benzo[b][1,4]oxazine-7-carboxamide]
> 1000 nM | 638 nM | CC(C)(C)C[C@H]1N[C@H](C(=O)N2CCOc3cc(C(N)=O)ccc32)[C@@H](c2cccc(Cl)c2F)[C@@]12CNc1cc(Cl)ccc12 [Example 15, 4-((2′R,3R,4′R,5′S)-6-chloro-4′-(3-chloro-2-fluorophenyl)-2′-neopentylspiro[indoline-3,3′-pyrrolidine]-5′-carbonyl)-3,4-dihydro-2H-benzo[b][1,4]oxazine-7-carboxamide]
 | 2.03 nM | COc1cc(C(=O)NCCCC#Cc2cccc3c2CN(C2CCC(=O)N(C)C2=O)C3=O)ccc1NC(=O)[C@@H]1N[C@@H](CC(C)(C)C)[C@@]2(CNc3cc(Cl)ccc32)[C@H]1c1cccc(Cl)c1F (stereo partly drawn) [Example 19, (2′S,3S,4′S,5′R)-6-chloro-4′-(3-chloro-2-fluorophenyl)-2′-(2,2-dimethylpropyl)-N-[2-methoxy-4-({5-[2-(1-methyl-2,6-dioxopiperidin-3-yl)-1-oxo-3H-isoindol-4-yl]pent-4-yn-1-yl}carbamoyl)phenyl]-1,2-dihydrospiro[indole-3,3′-pyrrolidine]-5′-carboxamide]
 | 10.8 nM | COc1cc(N2CCC[C@H](C#Cc3cccc4c3CN([C@H]3CCC(=O)NC3=O)C4=O)C2)ccc1NC(=O)[C@@H]1N[C@@H](CC(C)(C)C)[C@@]2(CNc3cc(Cl)ccc32)[C@H]1c1cccc(Cl)c1F [Example 28, (2′S,3S,4′S,5′R)-6-chloro-4′-(3-chloro-2-fluorophenyl)-N-(4-((R)-3-((2-((S)-2,6-dioxopiperidin-3-yl)-1-oxoisoindolin-4-yl)ethynyl)piperidin-1-yl)-2-methoxyphenyl)-2′-neopentylspiro[indoline-3,3′-pyrrolidine]-5′-carboxamide]
 | 12 nM | COc1cc(N2CCC[C@H](C#Cc3cccc4c3CN([C@@H]3CCC(=O)NC3=O)C4=O)C2)ccc1NC(=O)[C@@H]1N[C@@H](CC(C)(C)C)[C@@]2(CNc3cc(Cl)ccc32)[C@H]1c1cccc(Cl)c1F [Example 29, (2′S,3S,4′S,5′R)-6-chloro-4′-(3-chloro-2-fluorophenyl)-N-(4-((R)-3-((2-((R)-2,6-dioxopiperidin-3-yl)-1-oxoisoindolin-4-yl)ethynyl)piperidin-1-yl)-2-methoxyphenyl)-2′-neopentylspiro[indoline-3,3′-pyrrolidine]-5′-carboxamide]
 | 13.2 nM | COc1cc(N2CCC[C@@H](C#Cc3cccc4c3CN([C@H]3CCC(=O)NC3=O)C4=O)C2)ccc1NC(=O)[C@@H]1N[C@@H](CC(C)(C)C)[C@@]2(CNc3cc(Cl)ccc32)[C@H]1c1cccc(Cl)c1F [Example 30, (2′S,3S,4′S,5′R)-6-chloro-4′-(3-chloro-2-fluorophenyl)-N-(4-((S)-3-((2-((S)-2,6-dioxopiperidin-3-yl)-1-oxoisoindolin-4-yl)ethynyl)piperidin-1-yl)-2-methoxyphenyl)-2′-neopentylspiro[indoline-3,3′-pyrrolidine]-5′-carboxamide]
 | 6.1 nM | COc1cc(N2CCC[C@@H](C#Cc3cccc4c3CN([C@@H]3CCC(=O)NC3=O)C4=O)C2)ccc1NC(=O)[C@@H]1N[C@@H](CC(C)(C)C)[C@@]2(CNc3cc(Cl)ccc32)[C@H]1c1cccc(Cl)c1F [Example 31, (2′S,3S,4′S,5′R)-6-chloro-4′-(3-chloro-2-fluorophenyl)-N-(4-((S)-3-((2-((R)-2,6-dioxopiperidin-3-yl)-1-oxoisoindolin-4-yl)ethynyl)piperidin-1-yl)-2-methoxyphenyl)-2′-neopentylspiro[indoline-3,3′-pyrrolidine]-5′-carboxamide]
5.75 nM |  | COc1cc(C(=O)N2CCC[C@@]3(C[C@H]3C#Cc3cccc4c3CN([C@H]3CCC(=O)NC3=O)C4=O)C2)ccc1NC(=O)[C@@H]1N[C@@H](CC(C)(C)C)[C@@]2(CNc3cc(Cl)ccc32)[C@H]1c1cccc(Cl)c1F [Example 61, (2′S,3S,4′S,5′R)-6-chloro-4′-(3-chloro-2-fluorophenyl)-2′-(2,2-dimethylpropyl)-N-{4-[(1S,3S)-1-(2-{2-[(3S)-2,6-dioxopiperidin-3-yl]-1-oxo-3H-isoindol-4-yl}ethynyl)-5-azaspiro[2.5]octane-5-carbonyl]-2-methoxyphenyl}-1,2-dihydrospiro[indole-3,3′-pyrrolidine]-5′-carboxamide]
40.2 nM |  | COc1cc(C(=O)N2CCC[C@@]3(C[C@@H]3C#Cc3cccc4c3CN([C@H]3CCC(=O)NC3=O)C4=O)C2)ccc1NC(=O)[C@@H]1N[C@@H](CC(C)(C)C)[C@@]2(CNc3cc(Cl)ccc32)[C@H]1c1cccc(Cl)c1F [Example 62, (2′S,3S,4′S,5′R)-6-chloro-4′-(3-chloro-2-fluorophenyl)-2′-(2,2-dimethylpropyl)-N-{4-[(1R,3S)-1-(2-{2-[(3S)-2,6-dioxopiperidin-3-yl]-1-oxo-3H-isoindol-4-yl}ethynyl)-5-azaspiro[2.5]octane-5-carbonyl]-2-methoxyphenyl}-1,2-dihydrospiro[indole-3,3′-pyrrolidine]-5′-carboxamide]
41.6 nM |  | COc1cc(C(=O)N2CCC[C@]3(C[C@H]3C#Cc3cccc4c3CN([C@H]3CCC(=O)NC3=O)C4=O)C2)ccc1NC(=O)[C@@H]1N[C@@H](CC(C)(C)C)[C@@]2(CNc3cc(Cl)ccc32)[C@H]1c1cccc(Cl)c1F [Example 63, (2′S,3S,4′S,5′R)-6-chloro-4′-(3-chloro-2-fluorophenyl)-2′-(2,2-dimethylpropyl)-N-{4-[(1S,3R)-1-(2-{2-[(3S)-2,6-dioxopiperidin-3-yl]-1-oxo-3H-isoindol-4-yl}ethynyl)-5-azaspiro[2.5]octane-5-carbonyl]-2-methoxyphenyl}-1,2-dihydrospiro[indole-3,3′-pyrrolidine]-5′-carboxamide]
188 nM |  | COc1cc(C(=O)N2CCC[C@]3(C[C@@H]3C#Cc3cccc4c3CN([C@H]3CCC(=O)NC3=O)C4=O)C2)ccc1NC(=O)[C@@H]1N[C@@H](CC(C)(C)C)[C@@]2(CNc3cc(Cl)ccc32)[C@H]1c1cccc(Cl)c1F [Example 64, (2′S,3S,4′S,5′R)-6-chloro-4′-(3-chloro-2-fluorophenyl)-2′-(2,2-dimethylpropyl)-N-{4-[(1R,3R)-1-(2-{2-[(3S)-2,6-dioxopiperidin-3-yl]-1-oxo-3H-isoindol-4-yl}ethynyl)-5-azaspiro[2.5]octane-5-carbonyl]-2-methoxyphenyl}-1,2-dihydrospiro[indole-3,3′-pyrrolidine]-5′-carboxamide]
110 nM |  | COc1cc(C(=O)O)ccc1NC(=O)[C@@H]1N[C@@H](CC(C)(C)C)[C@](C#N)(c2ccc(Cl)cc2F)[C@H]1c1cccc(Cl)c1F [RG7388, reference compound]
